What was measured:
TCR3 = assay: Single SABR-II co-incubation, NFAT-GFP Jurkat; format: cell-based, mouse; settings: TCR 3, Fig 5C
Excerpt: Given the predominance of HIP-reactive TCRs, we hypothesized that there may be other TCRs that respond to HIPs that were not encoded in our initial library configuration. While the initial I-Ag7 SABR-II library consisted of a number of HIPs, HIP formation is thought to be more widespread in pancreatic β-cells[52],[70]. Therefore, we sought to construct a defined, HIP-focused library to probe whether there were any undiscovered HIP-reactive TCRs that could be recognized by the clonally expanded TCR in our dataset. To test this, we utilized a published proteomic dataset, which predicted that several proteins that were highly expressed in secretory granules of β-cells may contribute to HIP formation. Using their predictions, we built a theoretical HIP library, in which all possible ‘left’ halves of the insulin C chain derived from natural cleavage products were fused to ‘right’ halves derived from secretory granule proteins (Fig. 5a). This 2,561-epitope library (12–25 amino acids per epitope) consisted of only HIPs and a small number of positive control epitopes (Supplementary Table 5). We screened the top three clonally expanded TCRs (TCR1, TCR2 and TCR3) against this library, as these TCRs had not been de-convoluted using the original library. […] To confirm that the HIP itself was important for the cognate interaction, we cloned single 14-mer epitopes into SABR-IIs consisting of seven amino acids of the left portion of the HIP and seven amino acids of the right portion of the HIP. In this way, no nine amino acids from either peptide sequence alone could occupy the binding pocket of I-Ag7, ensuring that TCR reactivity spanned the HIP junction. […] Of note, in all the epitopes that were tested, the ‘left’ half derived from insulin C was conserved, whereas the ‘right’ halves were derived from several other proteins (Fig. 5d). […] Moreover, the promiscuous binding of TCR3 to HIPs corroborates evidence from other NOD mouse-derived TCRs reacting to multiple HIPs[72].
For SABR library screens, 3 × 10^6 NFAT–GFP Jurkat cells expressing the SABR library were labeled with CellTrace Violet (BioLegend) according to the manufacturer’s protocol before incubation with 3 × 10^6 Jurkat cells expressing the TCR of interest. These mixtures were incubated in a six-well plate for 16–20 h. Cells were stained with anti-CD69-APC-Cy7 where indicated (BioLegend) and the top 1–2% of GFP^+CD69^+ cells were sorted for genomic DNA extraction, indexing and sequencing (see below). Multiplexed assays were scaled on a per-TCR basis (for example 3 × 10^6 for each of three TCRs against 9 × 10^6 library cells). For single SABR assays, unless otherwise defined, 5 × 10^5 SABR expressing NFAT–GFP Jurkat cells (or 5KC cells) were labeled with CellTrace Violet (BioLegend) according to the manufacturer’s protocol before incubation with 5 × 10^5 TCR-expressing Jurkat cells (or 5KC cells) in a round-bottom 96-well plate for 16–20 h. Cells were stained with anti-CD69-APC-Cy7 when indicated and acquired on the Attune NxT flow cytometer (Thermo Fisher Scientific). All flow analysis was performed using FlowJo (BD). For Daudi cell co-culture, 1 × 10^6 Jurkat cells expressing the TCR of interest were incubated with 1 × 10^6 Daudi cells expressing a SABR of interest for 3 days. On day 3, cells were labeled with anti-RT1B-PE and anti-Fas-APC-Cy7 before being acquired on the Attune NxT flow cytometer.

TCR37 = assay: mIL-2 ELISA, TCR-expressing 5KC cells with SABR NFAT-GFP Jurkat cells; format: cell-based, mouse; settings: murine IL-2 ELISA, 24 hr co-incubation

| Sequence | %GFP+CD69+ cells of SABR-NFAT-GFP-Jurkat cells (TCR3; technical replicate 1) [%] | %GFP+CD69+ cells of SABR-NFAT-GFP-Jurkat cells (TCR3; technical replicate 2) [%] | IL-2 secretion (TCR37; technical replicate 1) | IL-2 secretion (TCR37; technical replicate 2) |
| --- | --- | --- | --- | --- |
| LQTLALNAARDP | 0.94 | 0.89 |  |  |
| SHLVEALYLVCGERG |  |  | 37.8351 | 38.2928 |

Reference: article PMC11093748, “De novo identification of CD4^+ T cell epitopes” (Nature Methods, 2024)
